Molecules are shown by their SMILES.

One assay has as its target T1, human TLR7 (Homo sapiens, UniProt Q9NYK1).
T1 construct: expressed in transfected cells; host or cells: HEK293 cells, transient transfection with CMV-TLR7 plasmid and NFκB-luc plasmid
T1 sequence (Q9NYK1 27-1049): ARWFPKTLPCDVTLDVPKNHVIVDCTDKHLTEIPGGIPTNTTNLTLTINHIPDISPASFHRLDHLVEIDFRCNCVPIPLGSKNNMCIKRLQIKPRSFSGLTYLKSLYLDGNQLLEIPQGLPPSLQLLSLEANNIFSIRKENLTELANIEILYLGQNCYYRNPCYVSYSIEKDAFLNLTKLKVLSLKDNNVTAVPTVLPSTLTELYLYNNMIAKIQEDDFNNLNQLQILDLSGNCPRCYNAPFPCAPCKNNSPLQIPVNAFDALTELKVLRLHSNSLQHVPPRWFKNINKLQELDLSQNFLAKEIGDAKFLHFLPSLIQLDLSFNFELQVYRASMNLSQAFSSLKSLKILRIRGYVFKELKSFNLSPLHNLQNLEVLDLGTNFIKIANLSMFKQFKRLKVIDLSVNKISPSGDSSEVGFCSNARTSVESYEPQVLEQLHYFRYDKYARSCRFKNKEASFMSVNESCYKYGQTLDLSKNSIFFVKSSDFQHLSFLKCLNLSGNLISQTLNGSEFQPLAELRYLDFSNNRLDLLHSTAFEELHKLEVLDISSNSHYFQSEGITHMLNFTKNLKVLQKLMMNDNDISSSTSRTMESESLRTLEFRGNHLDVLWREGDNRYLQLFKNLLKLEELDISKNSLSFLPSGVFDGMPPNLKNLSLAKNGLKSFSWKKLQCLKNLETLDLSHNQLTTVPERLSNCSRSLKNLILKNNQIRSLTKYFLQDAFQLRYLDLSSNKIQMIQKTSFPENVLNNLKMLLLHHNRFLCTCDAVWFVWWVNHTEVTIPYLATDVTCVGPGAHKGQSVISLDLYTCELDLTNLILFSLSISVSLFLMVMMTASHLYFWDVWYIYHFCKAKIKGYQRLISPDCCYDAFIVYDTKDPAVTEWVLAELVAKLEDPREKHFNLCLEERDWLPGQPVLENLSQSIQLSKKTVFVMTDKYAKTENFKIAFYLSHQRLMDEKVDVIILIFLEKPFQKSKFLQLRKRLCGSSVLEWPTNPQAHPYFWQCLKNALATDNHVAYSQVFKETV
Kind of assay: TLR7 cellular reporter assay (HEK293, NFκB-luc). Type of assay: cell-based. The following applies: HEK293 cells transfected with CMV-TLR7 and NFκB-luc, 6 hours incubation; lowest effective concentration. Here is the method: (§1) The ability of compounds to activate human TLR7 and/or TLR8 was assessed in a cellular reporter assay using HEK293 cells transiently transfected with a TLR7 or TLR8 expression vector and NFκB-luc reporter construct.
(§2) Briefly, HEK293 cells were grown in culture medium (DMEM supplemented with 10% FCS and 2 mM Glutamine). […] Thirty microliters of cells were then dispensed into each well in 384-well plates, where 10 μL of compound in 4% DMSO was already present. Following 6 hours incubation at 37° C., 5% CO2, the luciferase activity was determined by adding 15 μL of Steady Lite Plus substrate (Perkin Elmer) to each well and readout performed on a ViewLux ultraHTS microplate imager (Perkin Elmer). Dose response curves were generated from measurements performed in quadruplicates.
On the technique in general: In a reporter assay the amount or activity of a reporter protein is the signal.

The test system of assay [1] is interferon-stimulated responsive elements (ISRE). Kind of assay: Activation of ISRE promoter elements by conditioned media from PBMC (HEK-ISREluc). Type of assay: cell-based, human. To be noted: Homo sapiens; conditioned media from PBMC transferred to HEK-ISREluc cells, 24 hours; lowest effective concentration; read-out: PBMC LEC. Here is the method: The potential of compounds to induce IFN-I was also evaluated by measuring the activation of interferon-stimulated responsive elements (ISRE) by conditioned media from PBMC. The ISRE element of sequence […] (SEQ. ID NO:1) is highly responsive to the STAT1-STAT2-IRF 9 transcription factor, activated upon binding of IFN-I to their receptor IFNAR (Clontech, PT3372-5W). […] A HEK293 cell line stably transfected with pISRE-Luc (HEK-ISREluc) was established to profile of the conditioned PBMC cell culture media.
Briefly, PBMCs were prepared from buffy coats of at least two donors using a standard Ficoll centrifugation protocol. Isolated PBMCs were resuspended in RPMI medium supplemented with 10% human AB serum and 2×10^5 cells/well were dispensed into 384-well plates containing compounds (70 μL total volume). After overnight incubation, 10 μL of supernatant was transferred to 384-well plates containing 5×10^3 HEK-ISREluc cells/well in 30 μL (plated the day before). Following 24 hours of incubation, activation of the ISRE elements was measured by assaying luciferase activity using 40 μL/well Steady Lite Plus substrate (Perkin Elmer) and measured with ViewLux ultraHTS microplate imager (Perkin Elmer). The stimulating activity of each compound on the HEK-ISREluc cells was reported as LEC value, defined as the compound concentration applied to the PBMCs resulting in a luciferase activity at least two fold above the standard deviation of the assay. The LEC in turn indicates the degree of ISRE activation on transfer of a defined amount of PBMC culture medium. Recombinant interferon α-2a (Roferon-A) was used as a standard control compound.

The target in another assay is T2, human TLR8 (Homo sapiens, UniProt Q9NR97).
T2 construct: expressed in transfected cells; host or cells: HEK293 cells, transient transfection with TLR8 plasmid and NFκB-luc plasmid
T2 sequence (Q9NR97 27-1041): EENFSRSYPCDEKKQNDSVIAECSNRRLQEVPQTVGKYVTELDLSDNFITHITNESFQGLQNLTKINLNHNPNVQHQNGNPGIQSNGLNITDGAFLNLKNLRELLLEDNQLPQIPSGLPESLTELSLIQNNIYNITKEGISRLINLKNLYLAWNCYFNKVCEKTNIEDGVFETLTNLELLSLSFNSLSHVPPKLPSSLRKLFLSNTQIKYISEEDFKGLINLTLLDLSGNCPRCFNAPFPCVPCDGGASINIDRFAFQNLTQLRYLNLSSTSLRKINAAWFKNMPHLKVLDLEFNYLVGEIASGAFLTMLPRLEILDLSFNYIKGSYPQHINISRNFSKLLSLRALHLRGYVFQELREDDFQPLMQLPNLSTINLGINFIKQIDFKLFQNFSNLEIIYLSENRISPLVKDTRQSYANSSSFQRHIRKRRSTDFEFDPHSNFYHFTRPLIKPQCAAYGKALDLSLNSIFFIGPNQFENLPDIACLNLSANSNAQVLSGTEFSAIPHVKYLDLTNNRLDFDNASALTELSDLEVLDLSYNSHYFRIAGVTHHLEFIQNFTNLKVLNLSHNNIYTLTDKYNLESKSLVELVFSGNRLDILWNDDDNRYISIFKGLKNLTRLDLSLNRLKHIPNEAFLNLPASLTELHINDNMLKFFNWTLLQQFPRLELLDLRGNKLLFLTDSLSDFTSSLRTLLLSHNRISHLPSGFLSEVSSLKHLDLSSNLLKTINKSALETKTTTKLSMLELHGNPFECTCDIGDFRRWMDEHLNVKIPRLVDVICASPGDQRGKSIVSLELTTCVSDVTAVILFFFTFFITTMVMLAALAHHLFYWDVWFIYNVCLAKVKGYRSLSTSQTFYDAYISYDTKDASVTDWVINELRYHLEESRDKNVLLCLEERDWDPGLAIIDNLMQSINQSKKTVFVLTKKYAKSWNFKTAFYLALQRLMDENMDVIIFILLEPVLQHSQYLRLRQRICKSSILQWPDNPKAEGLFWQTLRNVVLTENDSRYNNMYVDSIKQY
Kind of assay: TLR8 cellular reporter assay (HEK293, NFκB-luc). The assay is classed as cell-based. The following applies: HEK293 cells transfected with CMV-TLR8 and NFκB-luc, 6 hours incubation; lowest effective concentration. Here is the method: as §1, §2

In the case of `COCCn1ccc2nc(N)nc(N[C@H](C)c3ccccn3)c21` (single isomer, unassigned) [Compound 151], the “TLR7 LEC” value on human TLR7 amounted to 12.8 µM. Moreover, in assay [1], the minimal effective concentration was determined as 2.58 µM. At human TLR8, the “TLR8 LEC” value was over 25 µM.

For `COCCn1ccc2nc(N)nc(N[C@@H](C)c3ccccn3)c21` (single isomer, unassigned) [Compound 152], at human TLR7, the “TLR7 LEC” value is 0.73 µM. In addition, the minimal effective concentration in assay [1] worked out at 0.142 µM. Moreover, the “TLR8 LEC” value at human TLR8 was over 25 µM.

For the molecule `C[C@@H](Nc1nc(N)nc2ccn(Cc3ccccn3)c12)c1ccccn1` (single isomer, unassigned) [Compound 194], the “TLR8 LEC” value on human TLR8 is over 25 µM.

For `C[C@H](Nc1nc(N)nc2ccn(Cc3ccccn3)c12)c1ccccn1` (single isomer, unassigned) [Compound 195], the “TLR8 LEC” value at human TLR8 is over 25 µM.

For the molecule `CCCCNc1nc(N)nc2ccn(Cc3ccccc3Oc3ccccc3)c12` [Compound 2], at human TLR7, the “TLR7 LEC” value is 0.50 µM. In addition, the minimal effective concentration in assay [1] turned out to be 0.6 µM. For the same molecule, the “TLR8 LEC” value at human TLR8 was over 25 µM.

Take `CCCCNc1nc(N)nc2ccn(Cc3cc(F)ccc3Br)c12` [Compound 3]: the “TLR7 LEC” value at human TLR7 is 2.6 µM. In addition, in assay [1], the minimal effective concentration was 1.2 µM. Also, on human TLR8, the “TLR8 LEC” value is over 25 µM.

As for `Cc1cc(CNc2nc(N)nc3ccn(Cc4ccccn4)c23)no1` [Compound 89], the “TLR8 LEC” value at human TLR8 was over 25 µM.

Consider `COCCNc1nc(N)nc2ccn(Cc3ccccn3)c12` [Compound 119], for which the “TLR8 LEC” value on human TLR8 was over 25 µM.

With `Cc1cc(CNc2nc(N)nc3ccn(Cc4ccc(C(F)(F)F)cn4)c23)no1` [Compound 122], the “TLR8 LEC” value on human TLR8 is over 25 µM.

Turning to `COc1ccc(Cn2ccc3nc(N)nc(NCc4cc(C)on4)c32)nc1OC` [Compound 124], the “TLR8 LEC” value on human TLR8 was over 22 µM.

Regarding `Cc1cc(CNc2nc(N)nc3ccn(Cc4ncccc4F)c23)no1` [Compound 125], the “TLR8 LEC” value at human TLR8 is over 25 µM.

With `Nc1nc(NCc2cc(C3CC3)on2)c2c(ccn2Cc2ccccn2)n1` [Compound 126], on human TLR8, the “TLR8 LEC” value was over 25 µM.

As for `CC(C)c1cc(CNc2nc(N)nc3ccn(Cc4ccccn4)c23)no1` [Compound 127], on human TLR8, the “TLR8 LEC” value was over 25 µM.

For the molecule `COc1cccc(Cn2ccc3nc(N)nc(NCc4cc(C)on4)c32)n1` [Compound 131], at human TLR8, the “TLR8 LEC” value was 24.6 µM.

Turning to `Nc1nc(NCc2nccs2)c2c(ccn2Cc2ccccn2)n1` [Compound 136], on human TLR8, the “TLR8 LEC” value was over 25 µM.

For the molecule `COCCCNc1nc(N)nc2ccn(Cc3ccccn3)c12` [Compound 138], the “TLR8 LEC” value on human TLR8 is over 25 µM.

On to `CCOCCNc1nc(N)nc2ccn(Cc3ccccn3)c12` [Compound 140], for which the “TLR8 LEC” value at human TLR8 was over 25 µM.

On to `CCC(O)CNc1nc(N)nc2ccn(Cc3ccccn3)c12` (centres unmarked) [Compound 141], for which the “TLR8 LEC” value on human TLR8 was over 25 µM.

Take `Nc1nc(NCc2ncco2)c2c(ccn2Cc2ccccn2)n1` [Compound 142]: the “TLR8 LEC” value at human TLR8 was over 25 µM.

With `Cc1cc(CNc2nc(N)nc3ccn(Cc4ccc(F)cn4)c23)no1` [Compound 144], on human TLR8, the “TLR8 LEC” value was over 25 µM.

In the case of `Cc1cc(CNc2nc(N)nc3ccn(Cc4cc(C(F)(F)F)ccn4)c23)no1` [Compound 145], the “TLR8 LEC” value on human TLR8 is over 25 µM.

Regarding `Nc1nc(NCc2ccon2)c2c(ccn2Cc2ccccn2)n1` [Compound 155], the “TLR8 LEC” value at human TLR8 was over 25 µM.

Regarding `Cc1cc(CNc2nc(N)nc3ccn(Cc4ncccc4Cl)c23)no1` [Compound 156], the “TLR8 LEC” value at human TLR8 is over 25 µM.

On to `Cc1cc(CNc2nc(N)nc3ccn(Cc4cc(Cl)ccn4)c23)no1` [Compound 158], for which the “TLR8 LEC” value on human TLR8 is over 25 µM.

Take `COCCNc1nc(N)nc2ccn(CC(=O)N(C)C)c12` [Compound 166]: the “TLR7 LEC” value at human TLR7 is 4.88 µM.

Consider `COc1cccnc1Cn1ccc2nc(N)nc(NCc3cc(C)on3)c21` [Compound 170], for which the “TLR8 LEC” value on human TLR8 is over 25 µM.

For `COc1ccc(Cn2ccc3nc(N)nc(NCc4cc(C)on4)c32)nc1` [Compound 171], on human TLR7, the “TLR7 LEC” value worked out at 0.02 µM. Moreover, the “TLR8 LEC” value at human TLR8 was over 25 µM.

For `Cc1nc(CNc2nc(N)nc3ccn(Cc4ccccn4)c23)cs1` [Compound 174], at human TLR8, the “TLR8 LEC” value was over 25 µM.

For the molecule `Cc1cc(CNc2nc(N)nc3ccn(Cc4ccccn4)c23)on1` [Compound 184], the “TLR8 LEC” value on human TLR8 is over 25 µM.

Regarding `Cc1ccc(CNc2nc(N)nc3ccn(Cc4ccccn4)c23)nc1` [Compound 189], the “TLR8 LEC” value on human TLR8 was over 25 µM.

In the case of `CC(Nc1nc(N)nc2ccn(Cc3ccccn3)c12)c1ccccn1` (centres unmarked) [Compound 190], the “TLR8 LEC” value at human TLR8 is over 25 µM.

As for `Cc1cnc(CNc2nc(N)nc3ccn(Cc4ccccn4)c23)o1` [Compound 191], at human TLR8, the “TLR8 LEC” value was over 25 µM.

For `Cc1cnc(CNc2nc(N)nc3ccn(Cc4ccccn4)c23)s1` [Compound 207], the “TLR8 LEC” value on human TLR8 worked out at 23 µM.

Take `Cc1coc(CNc2nc(N)nc3ccn(Cc4ccccn4)c23)n1` [Compound 214]: the “TLR8 LEC” value on human TLR8 is over 25 µM.

As to `Cc1nnc(CNc2nc(N)nc3ccn(Cc4ccccn4)c23)o1` [Compound 216], on human TLR8, the “TLR8 LEC” value was over 25 µM.

The record behind these values is patent US11220504B2, “Pyrrolo[3,2-d] pyrimidine derivatives for the treatment of viral infections and other diseases” (JANSSEN SCIENCES IRELAND UNLIMITED COMPANY, priority 2012, dated 2022).
